# According to US20110263862A1, “PIPERIDINE DERIVATIVE, PIPERAZINE DERIVATIVE AND AGENT FOR TREATMENT OF DISEASE INVOLVING CENTRAL NERVOUS SYSTEM DISORDERS” (M'S Science Corporation, priority 2008, published 2011):
# Columns and labels:
# [1] = test system: rat cerebral cortex neural cells; assay: Evaluation of neurite outgrowth-promoting activity in central neural cells; assay type: cell-based; details: 48 hours after addition, longest neurite length 60 μm or more, mean±standard error, control 18.0 ± 1.6
# Method: The neurite outgrowth-promoting effect of the rat cerebral cortex neural cells on test substances was evaluated using the following method. The cerebral cortex neural cells were isolated from Wistar rats on the 18th day of pregnancy according to the method of Springer Neuroscience Lab Manual. That is, under ether anesthesia, a fetal rat was removed from the uterus of a pregnant rat on day 18, and transferred into a petri dish containing HBSS (manufactured by Gibco, Inc.) on ice. The brain was subdivided into three pieces under a stereoscopic microscope to cut out the cerebral cortex. The cerebral cortex that had been cut out was dispersed with a neural cell dispersion solution (manufactured by Sumitomo Bakelite Co., Ltd.) to prepare rat cerebral cortex cells.
# The resulting cerebral cortex cells were subjected to cell culture. Neurobasal medium (manufactured by Gibco, Inc.) supplemented with B27 Supplement (manufactured by Gibco, Inc.; Fin. 2% v/v), L-glutamine (manufactured by IBCO company; Fin. 0.5 mM) and GlutaMax I (manufactured by Gibco, Inc.; Fin. 0.5 mM) was used as the culture medium. The culture conditions were as follows: 5% CO2, 95% air, 100% humidity, and 37° C. The cells were inoculated to polylysine-coated 8-well slides (manufactured by IWAKI company) so as to have about 2×10^4 cells/well.
# Compounds (1) to (6) were added as respective test substances (final concentrations: […] and 1.0 μM) to the culture solution at about 3 hours after the cell inoculation, and the culture solution with no additives was used as a control.
# At 48 hours after the addition of the compounds, the cells were fixed at room temperature for about 30 minutes using 4% paraformaldehyde (manufactured by Wako Pure Chemical Industries), and incubated with an anti-α-Tublin antibody (Anti-α-Tubulin Alexa Fluor 488 conjugate) recognizing a microtubule protein, at room temperature for one hour. After washing, the nucleus of the whole cell was stained with a nucleic acid-staining agent DAPI. The cells were observed under a fluorescence microscope at a magnification of 20 times. The stained cell image and the nuclear staining image in the same field of vision were imported into a computer as the image. Using an image analysis software (MethaMorph (registered trademark), Molecular Devises), the image imported into the computer, was used to measure the “longest neurite length” that was the length of the longest neurite of individual cell in each field of vision. A cell having a length of the “longest neurite length” of 60 μm or more is defined as a “neurite forming cell” and the neurite forming activity was evaluated by the ratio of the “neurite forming cell” occupied in the number of the cells in the same field of vision. In other words, such evaluation was performed by determining the rate of the neurite forming cells using the following equation:
# Rate of neurite forming cells=[Number of neurite forming cells/Number of total cells in the same field of vision]×100
# Each numerical value represents mean±standard error.
# sigma receptor = target: T1, sigma receptor (Cavia porcellus, UniProt Q60492); assay: Evaluation of affinity to sigma receptors ([3H](+)-pentazocine receptor binding experiment); parameters: species or system guinea pig; details: membrane preparation from whole brain of guinea pigs, 25° C., 60 minutes, Dixon plot
# T1 construct: A membrane preparation as a sigma receptor obtained from the whole brain of guinea pigs; from tissue; host or cells: guinea pig whole brain membrane preparation
# T1 sequence (Q60492 whole entry): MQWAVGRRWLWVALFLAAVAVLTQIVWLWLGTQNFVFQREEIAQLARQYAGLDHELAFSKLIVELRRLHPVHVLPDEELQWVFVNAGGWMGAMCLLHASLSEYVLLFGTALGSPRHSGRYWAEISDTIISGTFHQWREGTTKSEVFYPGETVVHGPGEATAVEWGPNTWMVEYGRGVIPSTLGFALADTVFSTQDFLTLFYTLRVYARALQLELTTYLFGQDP
# Method: A membrane preparation as a sigma receptor obtained from the whole brain of guinea pigs was used as an assay system; [^3H] (+)-pentazocine was used as a radioactive ligand; (+)-pentazocine was used as a positive substance; and 50 mM Tris hydrochloric acid buffer (pH 7.4) was used as a buffer.
# The measurement of the following radioactivity was performed according to a common method after the binding reaction had been carried out at 25° C. for 60 minutes.
# The inhibition rate was determined by the equation of “100−binding rate”. The binding rate is represented by the following equation:
# The IC50 of the test substance was calculated from a regression equation to the dose-response curve. That is, the ratio y=(B−N)/(B0−N) wherein a value of (B−N) is a specific binding radioactivity in the presence of a test substance, and a value of (B0−N) is a specific binding radioactivity in the absence of a test substance was first subjected to logit conversion and applied to a logit-log model plotted against the common logarithm of the test substance concentration to create a dose-response curve. […] The regression equation to the dose-response curve used is as follows:
# wherein Y=logity=ln(y/(1−y), X=log x, and a and b are each a constant, provided that x is a solute concentration of a test substance.
# Then, for each concentration of the positive substance, the reaction rate was measured while changing the concentration of the test substance in a range including the IC50 to create the Dixon plot, and the Ki value was calculated from the test substance concentration giving an intersection of these straight lines.
Compound,Neurite outgrowth-promoting activity (rate of neurite forming cells) ([1]; 0.3 μM),Neurite outgrowth-promoting activity (rate of neurite forming cells) ([1]; 1.0 μM),Ki (sigma receptor)
"COc1ccc(CCN2CCN(CCCc3ccccc3)CC2)cc1OC [Reference compound, reference compound]",44.6 ± 2.2%,58.4 ± 1.8%,
"c1ccc(CCCC2CCN(C3CCCCC3)CC2)cc1 [Compound (6), 1-cyclohexyl-4-(3-phenylpropyl)piperidine]",54.2 ± 1.7%,46.0 ± 2.4%,2.1 nM
"c1ccc(CC2CCN(C3CCCCC3)CC2)cc1 [Compound (4), 1-cyclohexyl-4-benzylpiperidine]",50.7 ± 2.7%,51.1 ± 2.9%,7 nM
"c1ccc(CCCN2CCN(C3CCCCC3)CC2)cc1 [Compound (3), 1-(3-phenylpropyl)-4-cyclohexylpiperazine]",49.6 ± 2.7%,58.4 ± 2.8%,6.1 nM
"c1ccc(CN2CCN(C3CCCCC3)CC2)cc1 [Compound (1), 1-benzyl-4-cyclohexylpiperazine]",55.2 ± 1.5%,54.6 ± 1.5%,6.5 nM
"c1ccc(CCN2CCN(C3CCCCC3)CC2)cc1 [Compound (2), 1-(2-phenylethyl)-4-cyclohexylpiperazine]",55.7 ± 2.4%,55.1 ± 2.3%,6 nM
"c1ccc(CCC2CCN(C3CCCCC3)CC2)cc1 [Compound (5), 1-cyclohexyl-4-(2-phenylethyl)piperidine]",51.2 ± 2.0%,48.9 ± 1.5%,3.9 nM
